This is an account of results in ChEMBL document CHEMBL1146831, “Binding of a homologous series of anthraquinones to DNA” (Bioorg Med Chem Lett, 2004).

In assay [1] the test system is Nucleic Acid. Put plainly: Binding constant towards AT-rich calf thymus DNA hairpin. The format is nucleic-acid assay. The conditions noted are these: Bos taurus.
The test system of assay [2] is Nucleic Acid. Kind of assay: Binding constant towards GC-rich calf thymus DNA hairpin. The conditions noted are these: Bos taurus. The format is nucleic-acid assay.

As for `COCCOCCCNCCC(=O)Nc1ccc2c(c1)C(=O)c1ccc(NC(=O)CCNCCCOCCOC)cc1C2=O`, the values for the K in assay [1] and in assay [2] were 550000 M⁻¹ and 220000 M⁻¹, respectively.

As for `COCCOCCOCCOCCCNCCC(=O)Nc1ccc2c(c1)C(=O)c1ccc(NC(=O)CCNCCCOCCOCCOCCOC)cc1C2=O`, the K in assay [1] amounted to 190000 M⁻¹; in assay [2], 90000 M⁻¹.

For `COCCOCCOCCCNCCC(=O)Nc1ccc2c(c1)C(=O)c1ccc(NC(=O)CCNCCCOCCOCCOC)cc1C2=O`, the K in assay [1] stood at 250000 M⁻¹; in assay [2], 110000 M⁻¹.

As to `COCCCNCCC(=O)Nc1ccc2c(c1)C(=O)c1ccc(NC(=O)CCNCCCOC)cc1C2=O`, the K in assay [1] stood at 760000 M⁻¹; in assay [2] it was 310000 M⁻¹.
